In ChEMBL document CHEMBL3885861, “Open TG-GATES”:

Organism: Rattus norvegicus
Assay: Open TG-GATES - Regimen: Daily Repeat
Assay type: toxicity, organism-based, Sprague-Dawley
Set-up: regimen Daily Repeat, gender Male, age 6 weeks
Conditions: in vivo, po, route gavage; for APTT / Bas / Eos / Fbg / Hb / Ht / Lym / MCH / MCHC / MCV / Mono / Neu / PT / Plat / RBC / Ret / WBC: tissue Blood; for KIDNEY_L / KIDNEY_R / KIDNEY_TOTAL: tissue Kidney; for LIVER: tissue Liver; for A/G / ALP / ALT / AST / BUN / CRE / Ca / Cl / DBIL / GLC / IP / K / LDH / Na / PL / RALB / TBIL / TC / TG / TP / gamma-GTP: tissue Plasma
[1] = 1 mg/kg, […], dose level Middle, time 14 day
[2] = 1 mg/kg, […], dose level Middle, time 28 day
[3] = 1 mg/kg, […], dose level Middle, time 7 day
[4] = 3 mg/kg, 72 h, dose level High, time 3 day
[5] = 3 mg/kg, […], dose level High, time 7 day
[6] = 3 mg/kg, […], dose level High, time 14 day

Compound CN1C(C(=O)Nc2ccccn2)=C(O)c2sc(Cl)cc2S1(=O)=O [LORNOXICAM] has a TERMINAL_BW [1] of 307.1 g, a TERMINAL_BW [2] of 392.3 g and an APTT [3] of 18.4 s. The Bas [3] was 0.8%, the Eos [3] was 1% and the Fbg [3] was 239.8 mg/dL. For the same compound, the Hb [3] was 12.9 g/dL, the Ht [3] was 38.3% and the Lym [3] was 71.6%. For the same compound, the MCH [3] was 20.9 pg, the MCHC [3] was 33.6% and the MCV [3] was 62.1 fL. The Mono [3] was 2.8%, the Neu [3] was 23.6% and the PT [3] was 11.5 s. The Plat [3] was 139.1 x10_4/uL, the RBC [3] was 617 x10_4/ul and the Ret [3] was 5.7%. It also gave a WBC [3] of 135.6 x10_2/uL, an APTT [1] of 20.3 s and a Bas [1] of 0.8%. It also gave an Eos [1] of 0.8%, a Fbg [1] of 291.6 mg/dL and a Hb [1] of 12.9 g/dL. The Ht [1] was 38.8%, the Lym [1] was 62.2% and the MCH [1] was 19.8 pg. The MCHC [1] was 33%, the MCV [1] was 59.9 fL and the Mono [1] was 3.8%. For the same compound, the Neu [1] was 31.8%, the PT [1] was 11.4 s and the Plat [1] was 151.7 x10_4/uL. It also gave an RBC [1] of 648 x10_4/ul, a Ret [1] of 5.7% and a WBC [1] of 137.4 x10_2/uL. For the same compound, the APTT [2] was 18.9 s, the Bas [2] was 0.8% and the Eos [2] was 1%. The Fbg [2] was 247.2 mg/dL, the Hb [2] was 15.2 g/dL and the Ht [2] was 44.2%. The Lym [2] was 71%, the MCH [2] was 19.6 pg and the MCHC [2] was 34.2%. The MCV [2] was 57.1 fL, the Mono [2] was 2.5% and the Neu [2] was 24%. It also gave a PT [2] of 11.7 s, a Plat [2] of 115.1 x10_4/uL and an RBC [2] of 775.8 x10_4/ul. For the same compound, the Ret [2] was 2.8%, the WBC [2] was 161.4 x10_2/uL and the KIDNEY_L [3] was 1.3 g. It also gave a KIDNEY_R [3] of 1.3 g, a KIDNEY_TOTAL [3] of 2.6 g and a KIDNEY_L [1] of 1.5 g. It also gave a KIDNEY_R [1] of 1.4 g, a KIDNEY_TOTAL [1] of 2.9 g and a KIDNEY_L [2] of 1.5 g. For the same compound, the KIDNEY_R [2] was 1.5 g, the KIDNEY_TOTAL [2] was 3.1 g and the LIVER [3] was 12.7 g. It also gave an LIVER [1] of 12.3 g, an LIVER [2] of 15.1 g and an A/G [3] of 1.4. For the same compound, the ALP [3] was 831.8 IU/L, the ALT [3] was 41.6 IU/L and the AST [3] was 75.6 IU/L. The BUN [3] was 13.4 mg/dL, the CRE [3] was 0.4 mg/dL and the Ca [3] was 10.6 mg/dL. For the same compound, the Cl [3] was 104 meq/L, the DBIL [3] was 0.086 mg/dL and the GLC [3] was 194 mg/dL. For the same compound, the IP [3] was 7.4 mg/dL, the K [3] was 4.1 meq/L and the LDH [3] was 210.2 IU/L. The Na [3] was 141.2 meq/L, the PL [3] was 136 mg/dL and the RALB [3] was 3.2 g/dL. It also gave a TBIL [3] of 0.1 mg/dL, a TC [3] of 70.6 mg/dL and a TG [3] of 93 mg/dL. The TP [3] was 5.5 g/dL, the gamma-GTP [3] was 1.2 IU/L and the A/G [1] was 1.2. It also gave an ALP [1] of 815.8 IU/L, an ALT [1] of 31.6 IU/L and an AST [1] of 79 IU/L. The BUN [1] was 21.8 mg/dL, the CRE [1] was 0.5 mg/dL and the Ca [1] was 10.3 mg/dL. It also gave a Cl [1] of 104.6 meq/L, a DBIL [1] of 0.086 mg/dL and a GLC [1] of 189.6 mg/dL. For the same compound, the IP [1] was 7.1 mg/dL, the K [1] was 4 meq/L and the LDH [1] was 225 IU/L. It also gave a Na [1] of 141.8 meq/L, a PL [1] of 131.2 mg/dL and an RALB [1] of 2.9 g/dL. For the same compound, the TBIL [1] was 0.1 mg/dL, the TC [1] was 65.6 mg/dL and the TG [1] was 106.2 mg/dL. It also gave a TP [1] of 5.3 g/dL, a gamma-GTP [1] of 2 IU/L and an A/G [2] of 1.3. It also gave an ALP [2] of 589.2 IU/L, an ALT [2] of 31.8 IU/L and an AST [2] of 76.2 IU/L. For the same compound, the BUN [2] was 19 mg/dL, the CRE [2] was 0.5 mg/dL and the Ca [2] was 10.2 mg/dL. It also gave a Cl [2] of 104 meq/L, a DBIL [2] of 0.0925 mg/dL and a GLC [2] of 206.5 mg/dL. It also gave an IP [2] of 6.3 mg/dL, a K [2] of 3.8 meq/L and an LDH [2] of 194.2 IU/L. It also gave a Na [2] of 141.8 meq/L, a PL [2] of 142.8 mg/dL and an RALB [2] of 3.3 g/dL. The TBIL [2] was 0.2 mg/dL, the TC [2] was 69.8 mg/dL and the TG [2] was 150.2 mg/dL. The TP [2] was 5.8 g/dL, the gamma-GTP [2] was 1.5 IU/L and the TERMINAL_BW [4] was 235 g. It also gave an APTT [4] of 18.3 s, a Bas [4] of 0.8% and an Eos [4] of 0.6%. For the same compound, the Fbg [4] was 354.8 mg/dL, the Hb [4] was 11.6 g/dL and the Ht [4] was 35.4%. The Lym [4] was 56.8%, the MCH [4] was 20.5 pg and the MCHC [4] was 32.9%. It also gave an MCV [4] of 62.4 fL, a Mono [4] of 6% and a Neu [4] of 29.2%. It also gave a PT [4] of 11.4 s, a Plat [4] of 121.4 x10_4/uL and an RBC [4] of 568.2 x10_4/ul. The Ret [4] was 6.5%, the WBC [4] was 164.3 x10_2/uL and the KIDNEY_L [4] was 1.2 g. It also gave a KIDNEY_R [4] of 1.1 g, a KIDNEY_TOTAL [4] of 2.3 g and an LIVER [4] of 12 g. For the same compound, the A/G [4] was 0.9, the ALP [4] was 648.6 IU/L and the ALT [4] was 30 IU/L. It also gave an AST [4] of 57.4 IU/L, a BUN [4] of 12.4 mg/dL and a CRE [4] of 0.4 mg/dL. The Ca [4] was 10.5 mg/dL, the Cl [4] was 103.8 meq/L and the DBIL [4] was 0.07 mg/dL. For the same compound, the GLC [4] was 194 mg/dL, the IP [4] was 8 mg/dL and the K [4] was 4.4 meq/L. It also gave an LDH [4] of 163 IU/L, a Na [4] of 140.8 meq/L and a PL [4] of 142.8 mg/dL. The RALB [4] was 2.4 g/dL, the TBIL [4] was 0.1 mg/dL and the TC [4] was 70.8 mg/dL. The TG [4] was 131.6 mg/dL, the TP [4] was 4.9 g/dL and the gamma-GTP [4] was 1.4 IU/L. For the same compound, the TERMINAL_BW [5] was 246.6 g, the APTT [5] was 18 s and the Bas [5] was 1%. The Eos [5] was 1%, the Fbg [5] was 362 mg/dL and the Hb [5] was 10.9 g/dL. It also gave a Ht [5] of 32.8%, a Lym [5] of 56% and an MCH [5] of 20.2 pg. The MCHC [5] was 33.2%, the MCV [5] was 61 fL and the Mono [5] was 4.7%. For the same compound, the Neu [5] was 36.3%, the PT [5] was 11.1 s and the Plat [5] was 232.1 x10_4/uL. It also gave an RBC [5] of 537.7 x10_4/ul, a Ret [5] of 6% and a WBC [5] of 243.6 x10_2/uL. For the same compound, the KIDNEY_L [5] was 1.2 g, the KIDNEY_R [5] was 1.2 g and the KIDNEY_TOTAL [5] was 2.3 g. The LIVER [5] was 11.3 g, the A/G [5] was 0.8 and the ALP [5] was 606 IU/L. For the same compound, the ALT [5] was 23.7 IU/L, the AST [5] was 58.3 IU/L and the BUN [5] was 9 mg/dL. It also gave a CRE [5] of 0.4 mg/dL, a Ca [5] of 10.3 mg/dL and a Cl [5] of 105.3 meq/L. For the same compound, the DBIL [5] was 0.0567 mg/dL, the GLC [5] was 176 mg/dL and the IP [5] was 7.7 mg/dL. The K [5] was 4.3 meq/L, the LDH [5] was 206.7 IU/L and the Na [5] was 141.3 meq/L. The PL [5] was 147 mg/dL, the RALB [5] was 2.4 g/dL and the TBIL [5] was 0.1 mg/dL. The TC [5] was 73.3 mg/dL, the TG [5] was 114.7 mg/dL and the TP [5] was 5.3 g/dL. The gamma-GTP [5] was 2 IU/L, the GLC [6] was 178 mg/dL and the gamma-GTP [6] was 1 IU/L.
